From patent US20220160815A1, “PEPTIDES AND USES THEREOF” (LATERAL IP PTY LTD, priority 2019, published 2022)
Several values for one entry are separate records, joined by “and”; a condition that tells them apart may be missing. Equal values may be shown once.

Assays:
Assay type in all cases: in vivo, human
migraine [1] = assay: Case studies 1-3: oral LAT8881 capsules taken during a migraine attack, self-rated pain and nausea
migraine headache = assay: Randomised, placebo-controlled, double-blind, crossover proof of concept study of oral LAT8881 in acute migraine headache; conditions: 60 mg oral
Text: The primary objective of this study was to evaluate the effect of oral LAT8881 on migraine headache compared with placebo, when assessed by the headache severity on an 11-point Numeric Rating Scale (NRS).
The secondary objectives of this study included: • a) to evaluate the effect of oral LAT8881 on migraine-associated symptoms compared with placebo, when assessed by the change in symptoms based on a 11-point Likert scale; • b) to investigate the percentage of subjects achieving “no headache pain” following treatment with oral LAT8881 compared with placebo at any time-point to 8 hours post dose, with no use of rescue medication; and • c) to evaluate the safety and tolerability of single doses of oral LAT8881 in subjects with migraine headache.
This was a randomised, placebo-controlled, double-blind, crossover, Phase Ha proof of concept study to investigate the efficacy and safety of oral LAT8881 (SEQ ID NO:2) in acute migraine headache with or without aura.
Subjects entered into the study were randomised to receive IMP (LAT8881; 60 mg or placebo), taken at the onset (within one hour from the onset of pain) of a migraine headache of moderate to severe intensity [Numeric rating scale (NRS)≥4]. Subjects were advised not to take rescue medication until at least 2 hours post dose with LAT8881. Subjects were given one dose of IMP (2 capsules), to treat one migraine headache.
After treatment of one migraine headache (or a maximum 28 days), the subject was asked to return to the clinic for re-evaluation and crossover to the second treatment. In the second treatment period, subjects were asked to take IMP in the same manner as in treatment period 1.
Subjects entered into the study were randomised to receive IMP (LAT8881; 60 mg or placebo; orally), to be taken at the onset (within one hour from the onset of pain) of a migraine headache of moderate to severe intensity.
Primary efficacy endpoints included a change in migraine headache pain score, using an 11-point NRS, (0=none, 10=worst imaginable), from the time of dosing to 0.5, 1.0, 1.5, 2, 4, 8 and 24 hours post dose. Pain was recorded in the subject' diary and was expected to reflect the subject's pain at the time of recording.
Secondary efficacy endpoints included: • a) Change in migraine-associated symptoms of nausea, photophobia and phonophobia. Symptoms were assessed on an 11-point Likert scale with 0=no symptoms and 10 being severe symptoms at time of dosing and at 0.5, 1.0, 1.5, 2, 4, 8 and 24 hours post dose; • b) Change in each subject's most troublesome symptom that may include nausea, photophobia and phonophobia cognitive impairment, dizziness and functional disability. Symptoms were assessed on an 11-point Likert scale with 0=no symptoms and 10 being severe symptoms at time of dosing and at 0.5, 1.0, 1.5, 2, 4, 8 and 24 hours post dose; and • c) The percentage of subjects achieving “no headache pain” at 0.5, 1.0, 1.5, 2, 4 and 8 hours post dose.
Post-hoc analyses were undertaken to assess the responder rate at each time point after dose of IMP. Two classifications of responder were defined: at least 30% change from baseline in NRS score and an NRS score of less than or equal to 3 at the post dose time points. After unblinding, it was discovered that one subject had recorded a pre-dose NRS score of 2 in period 1, a major protocol deviation as the instructions were to take IMP within one hour of the onset of a migraine headache of moderate to severe intensity (NRS>=4). This subject's data for this period was excluded. The responder rate for each treatment and difference between LAT8881 and placebo (95% confidence interval) at each time point are provided in Table 2, below (P1=Period 1; P2=Period 2; Photo=Photophobia; Phono=Phonophobia). FIGS. 1-4 show selected examples of NSR Pain Scores of subjects that completed the study and who received treatment with either placebo or with LAT8881 (SEQ ID NO:2; 60 mg per dose, orally).

migraine [2] = assay: Case study 4: LAT8881 injected into the right greater occipital nerve during a migraine attack; conditions: 0.4 mg injected into right greater occipital nerve
Experimental: The subject was a person that suffers from migraines and occipital neuralgia. The subject presented with bilateral tenderness of both occipital nerve sites and bilateral headaches, bitemporally and behind the eyes, all indicative of a migraine attack.
Dosage: 0.4 mg of LAT8881 (SEQ ID NO:2) injected into the right greater occipital nerve.

[3] = Case Study 2, 1 mg, 4 hours after dosing, 8 out of 10 at time of dosing
[4] = 2 subjects menstruating at the time of the migraine, NRS pain score
[5] = of the 15 subjects who completed the study
[6] = subjects who showed a benefit, NRS pain score
[7] = subjects who were slightly worse, NRS pain score

YLRIVQCRSVEGSCGF (listed as Homo sapiens) [LAT8881, C-terminal fragment of human growth hormone (hGH) spanning amino acid residues 178-192, with an additional tyrosine residue at the N-terminus]
migraine pain rating (migraine [1]; Case Study 1, 1 mg (four 0.25 mg capsules), an hour after dosing, 8 out of 10 at time of dosing): 7 out of 10
nausea rating (migraine [1]; Case Study 1, 1 mg, 4 hours after dosing, 7 out of 10 at time of dosing): 3 out of 10
migraine pain rating (migraine [1]; Case Study 1, 1 mg, 4 hours after dosing, 8 out of 10 at time of dosing): 6 out of 10
nausea rating (migraine [1]; Case Study 1, 1 mg, an hour after dosing, 7 out of 10 at time of dosing): 5 out of 10
migraine recurrence after dosing (migraine [1]; Case Study 1, 1 mg, subject averages about one migraine per month): No migraine was reported in the following month
migraine pain rating (migraine [1]; Case Study 2, 1 mg (two 0.5 mg capsules), an hour after dosing, 8 out of 10 at time of dosing): 2 out of 10
migraine pain rating (migraine [1]; [3]): 1 out of 10
nausea rating (migraine [1]; [3]): 1 out of 10
nausea rating (migraine [1]; Case Study 2, 1 mg, an hour after dosing, 8 out of 10 at time of dosing): 2 out of 10
migraine recurrence after dosing (migraine [1]; Case Study 2, 1 mg, subject averages about two migraines per month): No migraines reported in the following two months
nausea rating (migraine [1]; Case Study 3, 0.5 mg, overnight, 0 out of 10 at time of dosing): 0 out of 10
migraine recurrence after dosing (migraine [1]; Case Study 3, 0.5 mg, subject has migraines once every 3-6 months): No migraines reported in the following three months
average score reduction in menstruating subjects (migraine headache; [4]): 6
range of score reduction in menstruating subjects (migraine headache; [4]): 10 to 2
Nausea change 2 hrs LAT8881 (migraine headache; 11-point Likert scale, individual subjects): 0 (2×) and −5 (2×) and −10 and 1 and −1 (4×) and −2 (2×) and 2 and −8 and 3 and −3 and 6
LAT8881 pain score at 2 hours (migraine headache; 11-point NRS (0=none, 10=worst imaginable), individual subjects): 2 and 1 and 0 and 5 (2×) and 8 (3×) and 6 (4×) and 3 (2×) and 4 and 7 and 9
Responder rate (95% CI), 30% change from baseline (migraine headache; 30 minutes post dose): 0
Responder rate (95% CI), NRS Score <= 3 (migraine headache; 30 minutes post dose): 0
Count/Total, NRS Score <= 3 (migraine headache; 30 minutes post dose, responder = NRS score of less than or equal to 3): 0/16
Count/Total, 30% change from baseline (migraine headache; 30 minutes post dose, responder = at least 30% change from baseline in NRS score): 0/16
Count/Total, 30% change from baseline (migraine headache; 1 hour post dose): 2/16
Count/Total, NRS Score <= 3 (migraine headache; 1 hour post dose): 1/16
Responder rate (95% CI), 30% change from baseline (migraine headache; 1 hour post dose): 12.50
Responder rate (95% CI), 30% change from baseline, difference LAT8881 60 mg-Placebo (migraine headache; 1 hour post dose): 12.5 (−3.7, 28.7)
Responder rate (95% CI), NRS Score <= 3 (migraine headache; 1 hour post dose): 6.25
Responder rate (95% CI), NRS Score <= 3, difference LAT8881 60 mg-Placebo (migraine headache; 1 hour post dose): 0 (−16.77, 16.77)
Count/Total, 30% change from baseline (migraine headache; 1.5 hours post dose): 3/16
Count/Total, NRS Score <= 3 (migraine headache; 1.5 hours post dose): 3/16
Responder rate (95% CI), 30% change from baseline (migraine headache; 1.5 hours post dose): 18.75
Responder rate (95% CI), 30% change from baseline, difference LAT8881 60 mg-Placebo (migraine headache; 1.5 hours post dose): 12.5 (−10, 35)
Responder rate (95% CI), NRS Score <= 3 (migraine headache; 1.5 hours post dose): 18.75
Responder rate (95% CI), NRS Score <= 3, difference LAT8881 60 mg-Placebo (migraine headache; 1.5 hours post dose): 12.5 (−10, 35)
subjects menstruating at the time of the migraine who benefited (migraine headache; 2 hours): 2 out of 2
Count/Total, 30% change from baseline (migraine headache; 2 hours post dose): 8/16
Count/Total, NRS Score <= 3 (migraine headache; 2 hours post dose): 5/16
Responder rate (95% CI), 30% change from baseline (migraine headache; 2 hours post dose): 50.00
Responder rate (95% CI), 30% change from baseline, difference LAT8881 60 mg-Placebo (migraine headache; 2 hours post dose): 18.75 (−14.66, 52.16)
Responder rate (95% CI), NRS Score <= 3 (migraine headache; 2 hours post dose): 31.25
Responder rate (95% CI), NRS Score <= 3, difference LAT8881 60 mg-Placebo (migraine headache; 2 hours post dose): 25 (-0.62, 50.62)
Count/Total, 30% change from baseline (migraine headache; 4 hours post dose): 8/16
Count/Total, NRS Score <= 3 (migraine headache; 4 hours post dose): 5/16
Responder rate (95% CI), 30% change from baseline (migraine headache; 4 hours post dose): 50.00
Responder rate (95% CI), 30% change from baseline, difference LAT8881 60 mg-Placebo (migraine headache; 4 hours post dose): 0 (−34.65, 34.65)
Responder rate (95% CI), NRS Score <= 3 (migraine headache; 4 hours post dose): 31.25
Responder rate (95% CI), NRS Score <= 3, difference LAT8881 60 mg-Placebo (migraine headache; 4 hours post dose): −6.25 (-39.09, 26.59)
Count/Total, 30% change from baseline (migraine headache; 8 hours post dose): 14/16
Count/Total, NRS Score <= 3 (migraine headache; 8 hours post dose): 13/16
Responder rate (95% CI), 30% change from baseline (migraine headache; 8 hours post dose): 87.50
Responder rate (95% CI), 30% change from baseline, difference LAT8881 60 mg-Placebo (migraine headache; 8 hours post dose): 25 (−3.73, 53.73)
Responder rate (95% CI), NRS Score <= 3 (migraine headache; 8 hours post dose): 81.25
Responder rate (95% CI), NRS Score <= 3, difference LAT8881 60 mg-Placebo (migraine headache; 8 hours post dose): 25 (−5.93, 55.93)
Count/Total, 30% change from baseline (migraine headache; 24 hours post dose): 16/16
Count/Total, NRS Score <= 3 (migraine headache; 24 hours post dose): 15/16
Responder rate (95% CI), 30% change from baseline (migraine headache; 24 hours post dose): 100.00
Responder rate (95% CI), 30% change from baseline, difference LAT8881 60 mg-Placebo (migraine headache; 24 hours post dose): 12.5 (−3.7, 28.7)
Responder rate (95% CI), NRS Score <= 3 (migraine headache; 24 hours post dose): 93.75
Responder rate (95% CI), NRS Score <= 3, difference LAT8881 60 mg-Placebo (migraine headache; 24 hours post dose): 6.25 (−13.83, 26.33)
LAT8881 change from baseline (migraine headache; NRS pain score, predose to 2 hours, individual subjects): −3 (3×) and −5 and −10 and 1 (3×) and 2 (2×) and −4 (2×) and −2 (3×) and −1 and 0
Most Troublesome, change 2 hrs LAT8881 (migraine headache; most troublesome symptom, 11-point Likert scale, individual subjects): −5 (3×) and −10 and 3 (3×) and 0 (4×) and −4 and 1 and −2 (3×) and −1
number of subjects slightly worse at 2 hours (migraine headache; [5]): 5
number of subjects unchanged at 2 hours (migraine headache; [5]): 1
number of subjects whose pain had reduced to 3 or less after 2 hours (migraine headache; [5]): 4
number of subjects who showed a benefit at 2 hours (migraine headache; of the 15 subjects who completed the study, NRS pain score): 9
Phono change at 2 hrs LAT8881 (migraine headache; phonophobia, 11-point Likert scale, individual subjects): 0 (9×) and −7 and 4 and 2 (2×) and −4 and −1 and −2 and 3
Photo change at 2 hrs LAT8881 (migraine headache; photophobia, 11-point Likert scale, individual subjects): 0 (3×) and −2 (5×) and −7 and 1 (4×) and −6 (2×) and −4
pain score reduction in the subject menstruating at the time of each treatment (migraine headache; placebo led to an increase of 3 in the same subject): 2
median benefit at 2 hours (migraine headache; [6]): 3
range of benefit at 2 hours (migraine headache; [6]): 1-10
median increase at 2 hours (migraine headache; [7]): 2
range of increase at 2 hours (migraine headache; [7]): 1-2
migraine pain reported by subject (migraine [2]; Case Study 4, migraines and occipital neuralgia, within ten minutes): pain-free
other effects reported by subject (migraine [2]; Case Study 4): mental clarity and loss of brain fog
tenderness over the occipital nerve (migraine [2]; Case Study 4, within ten minutes, bilateral tenderness at presentation): no tenderness on either side over the occipital nerve
